# Results reported in patent US11440880B2, “Thalidomide analogs and methods of use” (The USA, as represented by the Secretary, Department of …, priority 2015, dated 2022).
# Tests used:
# [1] = system: fli1:EGFP zebrafish embryos (intersegmental vessel growth); experiment: fli1:EGFP zebrafish embryo angiogenesis assay; format: in vivo; set-up: fli1:EGFP angiogenesis n (survived/tested): concentration or dose not given beside the values; conditions: for minimal effective concentration: Danio rerio, lowest concentration producing an effect, compounds not producing an effect shown at the highest evaluated concentration; for fli1:EGFP angiogenesis n (survived/tested): embryos alive after 24 hours of exposure
# Excerpt: Zebrafish embryology: The use of zebrafish embryo (Danio rerio) bioassays as a preclinical model in the classification of novel compounds has increased in recent years due to several factors including; low cost, ease of maintenance, speed of embryonic development, transparency of the embryos and genetic conservation between zebrafish and humans (Howe et al., Nature 2013; 496:498; Therapontos et al., PNAS 2009, 106:8573; Mahony et al., PNAS 2013, 110:12703; Beedie et al., Oncotarget 2016, 7(22):33237; Beedie et al., Mol. Cancer Ther. 2015, 14(10):2228). Two established zebrafish reporter lines were used—the fli1:EGFP line, where the fli1 promoter drives expression of enhanced green fluorescent protein within the developing vasculature (Lawson et al., 2002), and the Tg(mpo::EGFP) line (also known as mpo:GFP), which expresses green fluorescent protein via the neutrophil specific myeloperoxidase promoter (Renshaw et al., Blood 2006, 108:3976). The use of these zebrafish transgenic reporter lines allows for the identification of potential anti-angiogenic and anti-inflammatory compounds respectively, and both have been used previously to successfully classify the action of thalidomide analogs (Therapontos et al., 2009; Mahony et al., 2013; Beedie et al., Oncotarget 2016, 7(22):33237; Beedie et al., Mol. Cancer Ther. 2015, 14(10):2228). Zebrafish embryos were treated with analogs as previously described (Mahony et al., 2013). Briefly, fli1:EGFP embryos were collected and embryos were allowed to develop for 24 hours. Embryos were dechorionated manually and exposed to test compounds or vehicle control for a further 24 hours, imaged and analyzed for intersegmental vessel (ISV) growth. At 24 hours post fertilisation (hpf) the ISVs were ideal to study to visualize and analyze the actions of compounds on angiogenesis. At this time point ISVs were rapidly forming beneath the developing head, over the body and had yet to form in the tail (Lawson and Weinstein, Developmental Biology 2002, 248:307; Therapontos and Vargesson, Developmental Dynamics 2010, 239:2761). Additionally, these sprouts would go on to form the bilateral dorsal longitudinal anastomotic vessels. By treating before this fusion and formation occurs, the effect of each compound on the individual vessels as well as overall patterning structural integrity (Isogai et al., Development 2003, 130:5281) could be determined. Tg(mpo::EGFP) were tail fin clipped as previously detailed (Renshaw et al., 2006; Mahony et al., 2013; Beedie et al., Oncotarget 2016, 7(22):33237; Beedie et al., Mol. Cancer Ther. 2015, 14(10):2228) and incubated with test compounds or vehicle control at 72 hours post fertilization. Fish were imaged at 24 hours and the number of migratory neutrophils present at the wound site were counted. Compounds inducing an at least 50% reduction of neutrophils to the wound site were considered to have anti-inflammatory properties in this system. All larvae were assessed for viability and morphological integrity.
# To determine if the thalidomide analogs had any effect on angiogenesis, fli1:EGFP embryos (Lawson and Weinstein, Developmental Biology 2002, 248:307-318) were exposed to either vehicle or a compound of interest, over a range of concentrations and over a range of time points starting at 24 hpf. Images were obtained at three time points over 24 hours after exposure to the compounds. The best concentration and time point were selected. CPS49, a compound that is chemically and structurally similar to thalidomide breakdown products, and is tetrafluorinated (which adds stability and bioactivity to the compound) and that causes severe limb defects in chicken embryos, was used as a positive control. The embryos were imaged at 48 hpf (FIGS. 3A3L) and analyzed for both vessel formation and the extent of growth of the vasculature. […]
# [2] = system: nitrite levels in the culture media; experiment: Nitrite level (Griess Reagent System) in LPS-challenged RAW 264.7 cells; format: cell-based, mouse; set-up: key: NS=not significant; a “+” sign=anti-inflammatory or increased cell numbers; a “−” sign=cell toxicity or pro-inflammatory; conditions: LPS 30 or 60 ng/mL, 24 h
# Method: (§1) Nitrite levels in the culture media were measured by use of the Griess Reagent System (Promega, Madison, Wis.), following the manufacturer's protocol. The O.D. of unknown samples was read at 520 nm λ, compared to a sodium nitrite standard curve (1.5 μM to 100 μM) and nitrite measured media concentrations expressed as μM units. As the lowest nitrite concentration on the Griess Reagent System standard curve was 1.5 μM, this was chosen as the effective cutoff for defining measurable nitrite concentrations. TNF-α protein levels were measured by use of an ELISA specific for mouse TNF-α protein (BioLegend, San Diego, Calif.) and are expressed as a % change from their appropriate control or as pg/ml.
# (§2) RAW 264.7 cells obtained from ATCC (Manassas, Va., USA) were grown in DMEM media supplemented with 10% FCS, penicillin 100 μg/ml and streptomycin 100 μg/ml, and maintained at 37° C. and 5% CO2. Cells were seeded in 24 well plates and, 24 hours later, were utilized in studies. One hour prior to the initiation of any study, the seeding media was replaced with fresh media (1 mL), and the cells were allowed to equilibrate at 37° C. and 5% CO2.
# (§3) RAW 264.7 cells were challenged with LPS (Sigma, St Louis, Mo.: serotype 055:B5) from at a final concentration of 30 or 60 ng/mL. This concentration of LPS in RAW 264.7 cells induces a sub-maximal rise in both TNF-alpha and nitrite levels without a loss in cellular viability. This sub-maximal rise is useful for assessing whether the addition of an experimental drug can either lower or further raise levels of TNF-α and nitrite. Twenty four hours following the addition of LPS, conditioned media was harvested and analyzed for quantification of secreted TNF-α protein and nitrite levels. Fresh media was replaced into the wells and cell viability was then assessed.
# (§4) Thalidomide and analogs were prepared in tissue culture grade DMSO (Sigma). RAW 264.7 cells were pretreated with thalidomide, analogues or vehicle one hour prior to a challenge with LPS. The effects of various concentrations of thalidomide analogues were assessed. All compounds were synthesized to a chemical purity of >99.5%, as assessed by chemical characterization by a combination of 1H NMR, 13C NMR and GC/MS analyses (Bruker AC-300 spectrometer, together with elemental analyses (Atlantic Microlab, Inc., Norcross, Ga.).
# [3] = system: TNF-α protein; experiment: TNF-α protein level (ELISA) in LPS-challenged RAW 264.7 cells; format: cell-based, mouse; set-up: key: NS=not significant; a “+” sign=anti-inflammatory or increased cell numbers; a “−” sign=cell toxicity or pro-inflammatory; conditions: LPS 30 or 60 ng/mL, 24 h
# Method: as §1, §2, §3, §4
# [4] = system: RAW 264.7 cells; experiment: Cell viability (CellTiter 96 AQueous One) of LPS-challenged RAW 264.7 cells; format: cell-based, mouse; set-up: key: NS=not significant; a “+” sign=anti-inflammatory or increased cell numbers; a “−” sign=cell toxicity or pro-inflammatory
# Method: The CellTiter 96® AQueous One Solution Cell Proliferation Assay (Promega, Madison, Wis.) is routinely used as an assay of cell proliferation, and was used according to the manufacturer's recommendations. Changes in cellular health status are determined by use of indirect measures related to the formation of a colored tetrazolium dye product that can be measured spectrophotometrically at 490 nm λ. […] Optical densities (expressed as O.D.s) were measured after various incubations.
# as §2, §3, §4
Structure (SMILES),anti-angiogenic effect (loss of ISVs or inhibition of ISV outgrowth) ([1]; in words),Nitrite ([2]; 1 μM),Nitrite ([2]; 10 μM),Nitrite ([2]; 30 μM),minimal effective concentration [1] [µg/mL],fli1:EGFP angiogenesis n (survived/tested) [1],TNF-α ([3]; 1 μM),TNF-α ([3]; 10 μM),TNF-α ([3]; 30 μM),Viability ([4]; 1 μM),Viability ([4]; 10 μM),Viability ([4]; 30 μM),Nitrite ([2]; 60 μM),TNF-α ([3]; 60 μM),Viability ([4]; 60 μM)
"O=C1c2c(F)c(F)c(F)c(F)c2C(=O)N1c1ccc(F)cc1F [CPS49, reference compound]",decrease in blood vessel length,,,,,,,,,,,,,,
CC(N1Cc2c(cccc2[N+](=O)[O-])C1=S)C12CC3CC(CC(C3)C1)C2 (stereo not shown) [Compound 89],,NS,+,+,10,7/11,NS,NS,NS,NS,NS,−,,,
C[C@H]1[C@H](N2Cc3c(N)cccc3C2=O)C[C@@H]2C[C@H]1C2(C)C [Compound 91],,+,+,+,10,5/18,NS,+,+,NS,+,+,,,
C[C@@H]1[C@@H](N2Cc3c(N)cccc3C2=O)C[C@H]2C[C@@H]1C2(C)C [Compound 93],,NS,NS,+,10,8/10,NS,NS,NS,NS,NS,NS,,,
C[C@@H]1[C@@H](N2C=C3C(=CC=C/C3=N\OO)C2=O)C[C@H]2C[C@@H]1C2(C)C [Compound 105],,NS,+,+,,,NS,NS,+,NS,NS,−,,,
CC1(C)[C@@H]2CC[C@H](CN3C(=O)C4CC=CCC4C3=O)[C@H]1C2 (stereo partly shown) [Compound 112],,,NS,+,,,,NS,+,,−,−,+,+,−
